Data from the NIST ThermoML archive (doi:10.1021/acs.jced.6b00121).
Values joined by “and” are separate entries in the source; they are usually repeats but may differ in a detail not shown here. Identical values can stand only once.

Tests used:
[1] = 100 kPa, Liquid; for viscosity: Falling or rolling sphere viscometry; for mass density: Vibrating tube method
[2] = xn = mol fraction of the nth substance listed; conditions: 100 kPa, Liquid, x2 = 0; for viscosity: Falling or rolling sphere viscometry; for mass density: Vibrating tube method

CCCCCCCCCCC [undecane]
[1]
Conditions | mass density | viscosity [mPa·s]
283.15 K | 747.78 kg/m3 | 1.371
288.15 K | 744.06 kg/m3 | 1.249
293.15 K | 740.35 kg/m3 | 1.145
298.15 K | 736.64 kg/m3 | 1.062
303.15 K | 732.93 kg/m3 | 0.982
308.15 K | 729.23 kg/m3 | 0.91
313.15 K | 725.53 kg/m3 | 0.847
318.15 K | 721.82 kg/m3 and 721.818 kg/m3 | 0.79
323.15 K | 718.11 kg/m3 | 0.74
328.15 K | 714.39 kg/m3 | 0.692
333.15 K | 710.68 kg/m3 | 0.651
338.15 K | 706.95 kg/m3 | 0.615
343.15 K | 703.22 kg/m3 | 0.58
348.15 K | 699.47 kg/m3 | 0.549
353.15 K | 695.72 kg/m3 | 0.522
358.15 K | 691.96 kg/m3 | 0.497
363.15 K | 688.18 kg/m3 | 0.475

CCCCO [butan-1-ol]
[1]
Conditions | mass density [kg/m3] | viscosity [mPa·s]
283.15 K | 817.07 | 4.046
288.15 K | 813.32 | 3.514
293.15 K | 809.55 | 3.066
298.15 K | 805.76 | 2.59
303.15 K | 801.94 | 2.28
308.15 K | 798.09 | 2.015
313.15 K | 794.2 | 1.786
318.15 K | 790.27 | 1.589
323.15 K | 786.3 | 1.427
328.15 K | 782.27 | 1.278
333.15 K | 778.18 | 1.147
338.15 K | 774.03 | 1.032
343.15 K | 769.8 | 0.934
348.15 K | 765.49 | 0.842
353.15 K | 761.12 | 0.762
358.15 K | 756.64 | 0.693
363.15 K | 752.08 | 0.633

CCCCCCO [hexan-1-ol] + CCCCCCCCCCC
[2]
Conditions | mass density [kg/m3] | viscosity [mPa·s]
283.15 K | 825.94 | 7.487
288.15 K | 822.42 | 6.307
293.15 K | 818.88 | 5.348
298.15 K | 815.32 | 4.555
303.15 K | 811.74 | 3.903
308.15 K | 808.13 | 3.361
313.15 K | 804.5 | 2.912
318.15 K | 800.83 | 2.538
323.15 K | 797.12 | 2.228
328.15 K | 793.37 | 1.97
333.15 K | 789.57 | 1.744
338.15 K | 785.72 | 1.553
343.15 K | 781.83 | 1.39
348.15 K | 777.86 | 1.255
353.15 K | 773.86 | 1.125
358.15 K | 769.78 | 1.018
363.15 K | 765.64 | 0.925

CCCO [propan-1-ol] + CCCCCCCCCCC
[2]
Conditions | mass density [kg/m3] | viscosity [mPa·s]
283.15 K | 811.48 | 2.834
288.15 K | 807.54 | 2.489
293.15 K | 803.58 | 2.195
298.15 K | 799.59 | 1.929
303.15 K | 795.58 | 1.714
308.15 K | 791.53 | 1.536
313.15 K | 787.44 | 1.372
318.15 K | 783.304 | 1.229
323.15 K | 779.11 | 1.113
328.15 K | 774.86 | 1.002
333.15 K | 770.54 | 0.905
338.15 K | 766.15 | 0.819
343.15 K | 761.67 | 0.752
348.15 K | 757.09 | 0.685
353.15 K | 752.44 | 0.625
358.15 K | 747.65 | 0.574
363.15 K | 742.77 | 0.528

CCCO [propan-1-ol]
[1]
Conditions | mass density [kg/m3] | viscosity [mPa·s]
283.15 K | 811.48 | 2.834
288.15 K | 807.54 | 2.489
293.15 K | 803.58 | 2.195
298.15 K | 799.59 | 1.929
303.15 K | 795.58 | 1.714
308.15 K | 791.53 | 1.536
313.15 K | 787.44 | 1.372
318.15 K | 783.304 | 1.229
323.15 K | 779.11 | 1.113
328.15 K | 774.86 | 1.002
333.15 K | 770.54 | 0.905
338.15 K | 766.15 | 0.819
343.15 K | 761.67 | 0.752
348.15 K | 757.09 | 0.685
353.15 K | 752.44 | 0.625
358.15 K | 747.65 | 0.574
363.15 K | 742.77 | 0.528

CCCCCCO [hexan-1-ol]
[1]
Conditions | mass density [kg/m3] | viscosity [mPa·s]
283.15 K | 825.94 | 7.487
288.15 K | 822.42 | 6.307
293.15 K | 818.88 | 5.348
298.15 K | 815.32 | 4.555
303.15 K | 811.74 | 3.903
308.15 K | 808.13 | 3.361
313.15 K | 804.5 | 2.912
318.15 K | 800.83 | 2.538
323.15 K | 797.12 | 2.228
328.15 K | 793.37 | 1.97
333.15 K | 789.57 | 1.744
338.15 K | 785.72 | 1.553
343.15 K | 781.83 | 1.39
348.15 K | 777.86 | 1.255
353.15 K | 773.86 | 1.125
358.15 K | 769.78 | 1.018
363.15 K | 765.64 | 0.925

CCCCCO [pentan-1-ol]
[1]
Conditions | mass density [kg/m3] | viscosity [mPa·s]
283.15 K | 821.9 | 5.431
288.15 K | 818.3 | 4.655
293.15 K | 814.68 | 4.011
298.15 K | 811.03 | 3.474
303.15 K | 807.37 | 3.023
308.15 K | 803.67 | 2.642
313.15 K | 799.94 | 2.32
318.15 K | 796.17 | 2.045
323.15 K | 792.36 | 1.81
328.15 K | 788.5 | 1.608
333.15 K | 784.59 | 1.434
338.15 K | 780.62 | 1.283
343.15 K | 776.58 | 1.152
348.15 K | 772.49 | 1.038
353.15 K | 768.33 | 0.939
358.15 K | 764.08 | 0.852
363.15 K | 759.77 | 0.776

CCCCO [butan-1-ol] + CCCCCCCCCCC
[2]
Conditions | mass density [kg/m3] | viscosity [mPa·s]
283.15 K | 817.07 | 4.046
288.15 K | 813.32 | 3.514
293.15 K | 809.55 | 3.066
298.15 K | 805.76 | 2.59
303.15 K | 801.94 | 2.28
308.15 K | 798.09 | 2.015
313.15 K | 794.2 | 1.786
318.15 K | 790.27 | 1.589
323.15 K | 786.3 | 1.427
328.15 K | 782.27 | 1.278
333.15 K | 778.18 | 1.147
338.15 K | 774.03 | 1.032
343.15 K | 769.8 | 0.934
348.15 K | 765.49 | 0.842
353.15 K | 761.12 | 0.762
358.15 K | 756.64 | 0.693
363.15 K | 752.08 | 0.633

CCCCCO [pentan-1-ol] + CCCCCCCCCCC
[2]
Conditions | mass density [kg/m3] | viscosity [mPa·s]
283.15 K | 821.9 | 5.431
288.15 K | 818.3 | 4.655
293.15 K | 814.68 | 4.011
298.15 K | 811.03 | 3.474
303.15 K | 807.37 | 3.023
308.15 K | 803.67 | 2.642
313.15 K | 799.94 | 2.32
318.15 K | 796.17 | 2.045
323.15 K | 792.36 | 1.81
328.15 K | 788.5 | 1.608
333.15 K | 784.59 | 1.434
338.15 K | 780.62 | 1.283
343.15 K | 776.58 | 1.152
348.15 K | 772.49 | 1.038
353.15 K | 768.33 | 0.939
358.15 K | 764.08 | 0.852
363.15 K | 759.77 | 0.776
